{
  "source": "patent US7799824B2",
  "about": "“Quaternary salt CCR2 antagonists” (OraPharma, Inc., priority 2004, dated 2010)",
  "data": [
    {"target": "T1, CCR2 (Homo sapiens, UniProt P41597)", "T1 sequence (P41597 1-360 isoform P41597-2)": "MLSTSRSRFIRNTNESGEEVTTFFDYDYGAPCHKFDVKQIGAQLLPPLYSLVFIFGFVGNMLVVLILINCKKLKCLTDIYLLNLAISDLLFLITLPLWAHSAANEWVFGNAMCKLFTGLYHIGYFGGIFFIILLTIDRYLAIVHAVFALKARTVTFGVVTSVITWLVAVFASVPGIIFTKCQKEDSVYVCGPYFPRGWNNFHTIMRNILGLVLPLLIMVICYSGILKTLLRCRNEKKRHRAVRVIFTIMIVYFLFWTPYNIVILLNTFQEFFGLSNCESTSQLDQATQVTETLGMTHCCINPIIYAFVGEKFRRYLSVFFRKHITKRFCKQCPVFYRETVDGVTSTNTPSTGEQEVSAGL", "test": "MCP-1 Receptor Binding Assay in THP-1 Cells", "conditions": "MCP-1 binding to CCR2; test concentration of 25 μM, unless indicated otherwise; read-out: % Inhibition Ligand Binding", "experimental": "(§1) THP-1 cells were obtained from American Type Culture Collection (Manassas, Va., USA). […] The cell density was maintained between 0.5×10^6 cells/mL.\n(§2) Cells were then harvested onto a filter plate, dried, and 20 μL of Microscint 20 was added to each well. Plates were counted in a TopCount NXT, Microplate Scintillation & Luminescence Counter (Perkin-Elmer Life Sciences, Inc. Boston, Mass.). Blank values (buffer only) were subtracted from all values and drug treated values were compared to vehicle treated values. 1 μM cold MCP-1 was used for nonspecific binding.", "units": {"inhibition at 25 µM": "%"}, "values": [
      {"smiles": "C[N+](C)(Cc1cccc(NC(=O)c2cccc(Br)c2)c1)C1CCOCC1", "note": "[Cpd 8, [3-(3-bromo-benzoylamino)-benzyl]-dimethyl-(tetrahydro-pyran-4-yl)-ammonium iodide]", "inhibition at 25 µM": 34},
      {"smiles": "C[N+](C)(Cc1ccc(NC(=O)c2cccc(Cl)c2Cl)cc1)C1CCCCC1", "note": "[Cpd 77, cyclohexyl-[4-(2,3-dichloro-benzoylamino)-benzyl]-dimethyl-ammonium iodide]", "inhibition at 25 µM": 53},
      {"smiles": "C[N+](C)(Cc1ccc(CNC(=O)C2=Cc3cc(Br)ccc3OC2)cc1)C1CCOCC1", "note": "[Cpd 99, (4-{[(6-bromo-2H-chromene-3-carbonyl)-amino]-methyl}-benzyl)-dimethyl-(tetrahydro-pyran-4-yl)-ammonium iodide]", "inhibition at 25 µM": 34}
    ]},
    {"target": "T1, CCR2", "test": "MCP-1 Receptor Binding Assay in THP-1 Cells", "conditions": "THP-1 cells, 0.5 nM 125I labeled MCP-1, 2 hours at 30° C.; read-out: Mean Ligand Binding IC50 (inhibition of MCP-1 binding to CCR2)", "experimental": "as §1, §2", "units": {"IC50": "µM"}, "values": [
      {"smiles": "C[N+](C)(Cc1ccc(NC(=O)c2cc3cc(Cl)ccc3[nH]2)cc1)CC1CC2CCC1C2", "note": "(centres unmarked) [Cpd 166, bicyclo[2.2.1]hept-2-ylmethyl-{4-[(5-chloro-1H-indole-2-carbonyl)-amino]-benzyl}-dimethyl-ammonium iodide]", "IC50": 0.11},
      {"smiles": "C[N+](C)(Cc1ccc(NC(=O)C2=Cc3ccccc3CCC2)cc1)C1CCCCC1", "note": "[Cpd 146, cyclohexyl-{4-[(8,9-dihydro-7H-benzocycloheptene-6-carbonyl)-amino]-benzyl}-dimethyl-ammonium iodide]", "IC50": 0.71},
      {"smiles": "C[N+]1(Cc2cccc(NC(=O)C=Cc3cccc(Br)c3)c2)CCCCC1", "note": "[Cpd 52, 1-{3-[3-(3-bromo-phenyl)-acryloylamino]-benzyl}-1-methyl-piperidinium iodide]", "IC50": 2.6},
      {"smiles": "C[N+]1(Cc2ccc(CNC(=O)C=Cc3ccc(Cl)c(Cl)c3)cc2)CCCCC1", "note": "[Cpd 48, 1-(4-{[3-(3,4-dichloro-phenyl)-acryloylamino]-methyl}-benzyl)-1-methyl-piperidinium iodide]", "IC50": 8.4},
      {"smiles": "Cn1c(C(=O)Nc2ccc(C[N+](C)(C)C3CCOCC3)cc2)cc2ccccc21", "note": "[Cpd 158, dimethyl-{4-[(1-methyl-1H-indole-2-carbonyl)-amino]-benzyl}-(tetrahydro-pyran-4-yl)-ammonium iodide]", "IC50": 0.4},
      {"smiles": "C[N+](C)(Cc1ccc(NC(=O)c2cc3cc(Cl)ccc3[nH]2)cc1)C1CCCCC1", "note": "[Cpd 164, {4-[(5-chloro-1H-indole-2-carbonyl)-amino]-benzyl}-cyclohexyl-dimethyl-ammonium iodide]", "IC50": 0.2},
      {"smiles": "C[N+](C)(Cc1ccc(NC(=O)C2=Cc3cccc(F)c3OC2)cc1)C1CCCCC1", "note": "[Cpd 126, cyclohexyl-{4-[(8-fluoro-2H-chromene-3-carbonyl)-amino]-benzyl}-dimethyl-ammonium iodide]", "IC50": 0.91},
      {"smiles": "C[N+](C)(Cc1ccc(NC(=O)c2cc3cc(Br)ccc3[nH]2)cc1)C1CCOCC1", "note": "[Cpd 160, {4-[(5-bromo-1H-indole-2-carbonyl)-amino]-benzyl}-dimethyl-(tetrahydro-pyran-4-yl)-ammonium iodide]", "IC50": 0.29},
      {"smiles": "C[N+](C)(Cc1ccc(NC(=O)c2cc3cc(Cl)ccc3[nH]2)cc1)C1CCOCC1", "note": "[Cpd 159, {4-[(5-chloro-1H-indole-2-carbonyl)-amino]-benzyl}-dimethyl-(tetrahydro-pyran-4-yl)-ammonium iodide]", "IC50": 0.19},
      {"smiles": "COc1ccc(C(=O)Nc2ccc(C[N+](C)(C)C3CCCCC3)cc2)cc1Cl", "note": "[Cpd 79, [4-(3-chloro-4-methoxy-benzoylamino)-benzyl]-cyclohexyl-dimethyl-ammonium iodide]", "IC50": 0.31},
      {"smiles": "C[N+](C)(Cc1ccc(NC(=O)C2=Cc3cc(Cl)ccc3OC2)cc1)C[C@@H]1CCCO1", "note": "[Cpd 109, (2S)-{4-[(6-chloro-2H-chromene-3-carbonyl)-amino]-benzyl}-dimethyl-(tetrahydro-furan-2-ylmethyl)-ammonium iodide]", "IC50": 5.3},
      {"smiles": "CC[N+](C)(Cc1ccc(NC(=O)c2ccc3ccccc3c2)cc1)C1CCOCC1", "note": "(centres unmarked) [Cpd 91, ethyl-methyl-{4-[(naphthalene-2-carbonyl)-amino]-benzyl}-(tetrahydro-pyran-4-yl)-ammonium iodide]", "IC50": 4.1},
      {"smiles": "COc1ccc2c(c1)C=C(C(=O)Nc1ccc(C[N+](C)(C)C3CCCCC3)cc1)CO2", "note": "[Cpd 106, cyclohexyl-{4-[(6-methoxy-2H-chromene-3-carbonyl)-amino]-benzyl}-dimethyl-ammonium iodide]", "IC50": 1.1},
      {"smiles": "C[N+](C)(Cc1ccc(NC(=O)c2cccc(Br)c2)cc1)C1CCCCC1", "note": "[Cpd 73, [4-(3-bromo-benzoylamino)-benzyl]-cyclohexyl-dimethyl-ammonium iodide]", "IC50": 0.44},
      {"smiles": "C[N+](C)(Cc1ccc(NC(=O)C2=Cc3cc(Br)ccc3OC2)cc1)C1CCOCC1", "note": "[Cpd 95, {4-[(6-bromo-2H-chromene-3-carbonyl)-amino]-benzyl}-dimethyl-(tetrahydro-pyran-4-yl)-ammonium iodide]", "IC50": 0.18},
      {"smiles": "C[N+](C)(Cc1ccc(NC(=O)c2c(Cl)cccc2Cl)cc1)C1CCCCC1", "note": "[Cpd 78, cyclohexyl-[4-(2,6-dichloro-benzoylamino)-benzyl]-dimethyl-ammonium iodide]", "IC50": 13.4},
      {"smiles": "C[N+](C)(Cc1ccc(NC(=O)C=Cc2cccc(Br)c2)cc1)C1CCCCC1", "note": "[Cpd 72, {4-[3-(3-bromo-phenyl)-acryloylamino]-benzyl}-cyclohexyl-dimethyl-ammonium iodide]", "IC50": 0.58},
      {"smiles": "COc1ccc2c(c1)C=C(C(=O)Nc1ccc(C[N+](C)(C)C3CCOCC3)cc1)CO2", "note": "[Cpd 104, {4-[(6-methoxy-2H-chromene-3-carbonyl)-amino]-benzyl}-dimethyl-(tetrahydro-pyran-4-yl)-ammonium iodide]", "IC50": 1.9},
      {"smiles": "C[N+](C)(Cc1ccc(NC(=O)c2ccnc(Cl)c2)cc1)C1CCOCC1", "note": "[Cpd 173, {4-[(2-chloro-pyridine-4-carbonyl)-amino]-benzyl}-dimethyl-(tetrahydro-pyran-4-yl)-ammonium iodide]", "IC50": 8.1},
      {"smiles": "C[N+](C)(CCc1ccc(NC(=O)c2cccc(Br)c2)cc1)C1CCOCC1", "note": "[Cpd 37, {2-[4-(3-bromo-benzoylamino)-phenyl]-ethyl}-dimethyl-(tetrahydro-pyran-4-yl)-ammonium iodide]", "IC50": 10.2},
      {"smiles": "C[N+]1(Cc2cccc(NC(=O)c3cccc(C(F)(F)F)c3)c2)CCCCC1", "note": "[Cpd 56, 1-methyl-1-[3-(3-trifluoromethyl-benzoylamino)-benzyl]-piperidinium iodide]", "IC50": 11.8},
      {"smiles": "C[N+](C)(Cc1ccc(NC(=O)c2cc3ccccc3s2)cc1)C1CCCCC1", "note": "[Cpd 177, {4-[(benzo[b]thiophene-2-carbonyl)-amino]-benzyl}-cyclohexyl-dimethyl-ammonium iodide]", "IC50": 0.17},
      {"smiles": "C[N+](C)(Cc1ccc(NC(=O)C2=Cc3ccccc3CCC2)cc1)C1CCOCC1", "note": "[Cpd 147, {4-[(8,9-dihydro-7H-benzocycloheptene-6-carbonyl)-amino]-benzyl}-dimethyl-(tetrahydro-pyran-4-yl)-ammonium iodide]", "IC50": 1.2},
      {"smiles": "C[N+](C)(Cc1ccc(NC(=O)C2=Cc3cc(Br)ccc3CCC2)cc1)C1CCCCC1", "note": "[Cpd 144, {4-[(3-bromo-8,9-dihydro-7H-benzocycloheptene-6-carbonyl)-amino]-benzyl}-cyclohexyl-dimethyl-ammonium iodide]", "IC50": 0.33},
      {"smiles": "C[N+](C)(Cc1ccc(NC(=O)C2=Cc3c(ccc4ccccc34)OC2)cc1)C1CCCCC1", "note": "[Cpd 137, {4-[(3H-benzo[f]chromene-2-carbonyl)-amino]-benzyl}-cyclohexyl-dimethyl-ammonium iodide]", "IC50": 0.08},
      {"smiles": "C[N+](C)(Cc1ccc(NC(=O)c2ccc(Cl)c(Cl)c2)cc1)C1CCSC1", "note": "(centres unmarked) [Cpd 19, [4-(3,4-dichloro-benzoylamino)-benzyl]-dimethyl-(tetrahydro-thien-3-yl)-ammonium iodide]", "IC50": 0.005},
      {"smiles": "C[N+](C)(Cc1ccc(NC(=O)C2=Cc3cc(Cl)ccc3OC2)cc1)C[C@H]1CCCO1", "note": "[Cpd 108, (2R)-{4-[(6-chloro-2H-chromene-3-carbonyl)-amino]-benzyl}-dimethyl-(tetrahydro-furan-2-ylmethyl)-ammonium iodide]", "IC50": 3.1},
      {"smiles": "C[N+](C)(Cc1cccc(NC(=O)C=Cc2ccc(F)cc2)c1)C1CCCCC1", "note": "[Cpd 84, cyclohexyl-{3-[3-(4-fluoro-phenyl)-acryloylamino]-benzyl}-dimethyl-ammonium iodide]", "IC50": 3.2},
      {"smiles": "C[N+]1(Cc2ccc(NC(=O)C=Cc3cccc(Br)c3)cc2)CCCCC1", "note": "[Cpd 55, 1-{4-[3-(3-bromo-phenyl)-acryloylamino]-benzyl}-1-methyl-piperidinium iodide]", "IC50": 5.4},
      {"smiles": "C[N+]1(Cc2ccc(NC(=O)c3ccc(Cl)c(Cl)c3)cc2)CCOCC1", "note": "[Cpd 59, 4-[4-(3,4-dichloro-benzoylamino)-benzyl]-4-methyl-morpholin-4-ium iodide]", "IC50": 10},
      {"smiles": "Cc1cc(Cl)cc2c1OCC(C(=O)Nc1ccc(C[N+](C)(C)C3CCCCC3)cc1)=C2", "note": "[Cpd 114, {4-[(6-chloro-8-methyl-2H-chromene-3-carbonyl)-amino]-benzyl}-cyclohexyl-dimethyl-ammonium iodide]", "IC50": 0.06},
      {"smiles": "C[N+](C)(Cc1ccc(NC(=O)C=Cc2cccc(Cl)c2)cc1)C1CCOCC1", "note": "[Cpd 45, {4-[3-(3-chloro-phenyl)-acryloylamino]-benzyl}-dimethyl-(tetrahydro-pyran-4-yl)-ammonium iodide]", "IC50": 0.26}
    ]}
  ]
}
